Positions of bridges follow the written chain, without caps; N, C: chain ends. Non-standard residues stand in square brackets, D forms with d. Residues, ends and D or L forms follow the SMILES beside them. *: point of attachment. X1 = CC[C@H](C)CCCCC(=O)*; Dab = NCC[C@H](N)C(=O)O
How the values were obtained:
P. aeruginosa AUMC-Pa-6 = assay: microbe, parasite or virus in culture; details: strain AUMC-Pa-6
How it was run: (§1)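 Two-fold serial dilutions in MHB received an equal volume of bacteria (suspension about 1 × 10^6 CFU/mL). Plates were held 18 h at 37 °C, then read visually for growth. Triplicate, CLSI-based.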

P. aeruginosa AUMC-Pa-5 = assay: microbe, parasite or virus in culture; details: strain AUMC-Pa-5
How it was run: as §1

P. aeruginosa PAO1 = assay: microbe, parasite or virus in culture; details: for MICac: the MIC for the antibiotic in the combination: S3 Table, PAO1
How it was run: as §1

P. aeruginosa AUMC-Pa-3 = assay: microbe, parasite or virus in culture; details: strain AUMC-Pa-3
How it was run: as §1

P. aeruginosa AUMC-Pa-4 = assay: microbe, parasite or virus in culture; details: strain AUMC-Pa-4
How it was run: as §1

P. aeruginosa ATCC27853 = assay: microbe, parasite or virus in culture; design: MICa: MIC of the antibiotic / MICac: MIC of the antibiotic in the combination: unit not given beside the values; details: strain ATCC27853
Protocol: (§2) The MIC tests were performed in triplicate using broth microdilution in accordance with Clinical and Laboratory Standards Institute (CLSI) recommendations (http://iacld.ir/DL/public/CLSI-2018-M100-S28.pdf). Briefly, drugs were two-fold diluted in MHB and mixed with an equal volume of bacterial suspensions containing approximately 1 × 10^6 CFU/mL in 96-well microliter plate. After 18 h incubation at 37 °C, the MIC values were defined as the lowest concentrations of antibiotics with no visible growth of bacteria. […] Otherwise, 1/4 MIC of the peptide was used in the combination. […] If needed, membrane compounds PG, PE, PC, CL or LPS, or membrane stabilizers MgCl2 or CaCl2, or efflux pumps inhibitor PAβN were added to the broth medium to clarify the effect of other substances on the synergy between peptide and antibiotics. All the tests were performed in triplicate.
(§3) The fractional inhibitory concentration (FIC) indices were calculated using the previously described formula FICI = FICa + FICb = MICac/MICa + MICbc/MICb. The FICI was interpreted according to EUCAST [65] as follows: synergistic, FICI≤0.5; additive, 0.5<FICI≤1; indifferent, 1<FICI<2; antagonistic, FICI ≥2. For the FICI calculations, twice the highest concentration tested was used in the cases where the MIC was not reached.

P. aeruginosa NR-31041 = assay: microbe, parasite or virus in culture; design: MICa: MIC of the antibiotic / MICac: MIC of the antibiotic in the combination: unit not given beside the values; details: strain NR-31041
Protocol: as §2, §3

P. aeruginosa NR-31040 = assay: microbe, parasite or virus in culture; design: MICa: MIC of the antibiotic / MICac: MIC of the antibiotic in the combination: unit not given beside the values; details: strain NR-31040
Protocol: as §2, §3

P. aeruginosa PAK = assay: microbe, parasite or virus in culture; design: MICa: MIC of the antibiotic / MICac: MIC of the antibiotic in the combination: unit not given beside the values; details: strain PAK
Protocol: as §2, §3

P. aeruginosa PA14 = assay: microbe, parasite or virus in culture; design: MICa: MIC of the antibiotic / MICac: MIC of the antibiotic in the combination: unit not given beside the values; details: strain PA14
Protocol: as §2, §3

[1] = system: clinical P. aeruginosa isolates; assay: microbe, parasite or virus in culture; details: antibiotic alone
How it was run: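 Broth microdilution per CLSI in MHB, two-fold drug dilutions mixed with an equal volume of bacteria at about 1 × 10^6 CFU/mL. After 18 h at 37 °C, MIC taken as the lowest concentration with no visible growth; run in triplicate.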

P. aeruginosa HM-214 = system: P. aeruginosa HM-214; design: MICa: MIC of the antibiotic / MICac: MIC of the antibiotic in the combination: unit not given beside the values; details: strain HM-214
Protocol: as §2, §3

P. aeruginosa AUMC-Pa-1 = details: strain AUMC-Pa-1
Protocol: as §2, §3

P. aeruginosa AUMC-Pa-2 = details: strain AUMC-Pa-2
Protocol: as §2, §3

[2] = antibiotic + D-11 (MICb/MICbc 64/4)
[3] = antibiotic alone, unit not given
[4] = with D-11 at MICbc 4, unit not given
[5] = antibiotic + D-11 (MICb/MICbc 128/4)

CC[C@H](C)CCCCC(=O)N[C@@H](CCN)C(=O)N[C@H](C(=O)N[C@@H](CCN)C(=O)N[C@H]1CCNC(=O)[C@H]([C@@H](C)O)NC(=O)[C@H](CCN)NC(=O)[C@H](CCN)NC(=O)[C@H](CC(C)C)NC(=O)[C@@H](CC(C)C)NC(=O)[C@H](CCN)NC1=O)[C@@H](C)O [Colistin] (X1-[Dab]T[Dab][Dab][Dab][dL]L[Dab][Dab]T; lactam 4-C (inferred); N-terminus assumed)
FICI (P. aeruginosa AUMC-Pa-6; [2]): 0.563
MICa: MIC of the antibiotic (P. aeruginosa AUMC-Pa-6; [3]): 4
MICac: MIC of the antibiotic in the combination (P. aeruginosa AUMC-Pa-6; [4]): 2
FICI (P. aeruginosa AUMC-Pa-5; [2]): 1.063
MICa: MIC of the antibiotic (P. aeruginosa AUMC-Pa-5; [3]): 4/4
MICac: MIC of the antibiotic in the combination (P. aeruginosa AUMC-Pa-5; [4]): 4/4
MICa: the MIC of antibiotics (P. aeruginosa PAO1; PAO1, 18 h): 0.25 µM
MICac: the MIC for the antibiotic in the combination (P. aeruginosa PAO1; with 2 μM D-11): 0.004 µM
MICac: the MIC for the antibiotic in the combination (P. aeruginosa PAO1; with 4 μM D-11): 0.001 µM
FICI (P. aeruginosa AUMC-Pa-3; [5]): 0.039
MICa: MIC of the antibiotic (P. aeruginosa AUMC-Pa-3; [3]): 0.25
MICac: MIC of the antibiotic in the combination (P. aeruginosa AUMC-Pa-3; [4]): 0.002
FICI (P. aeruginosa AUMC-Pa-4; [5]): 0.531
MICa: MIC of the antibiotic (P. aeruginosa AUMC-Pa-4; [3]): 8
MICac: MIC of the antibiotic in the combination (P. aeruginosa AUMC-Pa-4; [4]): 4
FICI (P. aeruginosa ATCC27853; antibiotic + D-11 (MICb/MICbc 32/4)): 0.375
MICa: MIC of the antibiotic (P. aeruginosa ATCC27853; [3]): 0.25
MICac: MIC of the antibiotic in the combination (P. aeruginosa ATCC27853; [4]): 0.063
FICI (P. aeruginosa NR-31041; [2]): 0.127
MICa: MIC of the antibiotic (P. aeruginosa NR-31041; [3]): 0.125
MICac: MIC of the antibiotic in the combination (P. aeruginosa NR-31041; [4]): 0.008
FICI (P. aeruginosa NR-31040; [5]): 0.281
MICa: MIC of the antibiotic (P. aeruginosa NR-31040; [3]): 1
MICac: MIC of the antibiotic in the combination (P. aeruginosa NR-31040; [4]): 0.25
FICI (P. aeruginosa PAK; [2]): 0.079
MICa: MIC of the antibiotic (P. aeruginosa PAK; [3]): 0.25
MICac: MIC of the antibiotic in the combination (P. aeruginosa PAK; [4]): 0.008
FICI (P. aeruginosa PA14; [5]): 0.094
MICa: MIC of the antibiotic (P. aeruginosa PA14; [3]): 0.25
MICac: MIC of the antibiotic in the combination (P. aeruginosa PA14; [4]): 0.016
Antibiotic sensibility (MIC) of clinical P. aeruginosa isolate AUMC-Pa-1 ([1]; strain AUMC-Pa-1): 0.5 µM
Antibiotic sensibility (MIC) of clinical P. aeruginosa isolate AUMC-Pa-2 ([1]; strain AUMC-Pa-2): 0.5 µM
Antibiotic sensibility (MIC) of clinical P. aeruginosa isolate AUMC-Pa-3 ([1]; strain AUMC-Pa-3): 0.25 µM
Antibiotic sensibility (MIC) of clinical P. aeruginosa isolate AUMC-Pa-4 ([1]; strain AUMC-Pa-4): 8 µM
Antibiotic sensibility (MIC) of clinical P. aeruginosa isolate AUMC-Pa-5 ([1]; strain AUMC-Pa-5): 4 µM
Antibiotic sensibility (MIC) of clinical P. aeruginosa isolate AUMC-Pa-6 ([1]; strain AUMC-Pa-6): 4 µM
Antibiotic sensibility (MIC) of clinical P. aeruginosa isolate HM-214 ([1]; strain HM-214): 1 µM
Antibiotic sensibility (MIC) of clinical P. aeruginosa isolate NR-31040 ([1]; strain NR-31040): 1 µM
Antibiotic sensibility (MIC) of clinical P. aeruginosa isolate NR-31041 ([1]; strain NR-31041): 0.125 µM
FICI (P. aeruginosa HM-214; [5]): 0.063
MICa: MIC of the antibiotic (P. aeruginosa HM-214; [3]): 1
MICac: MIC of the antibiotic in the combination (P. aeruginosa HM-214; [4]): 0.031
FICI (P. aeruginosa AUMC-Pa-1; [5]): 0.281
MICa: MIC of the antibiotic (P. aeruginosa AUMC-Pa-1; [3]): 0.5
MICac: MIC of the antibiotic in the combination (P. aeruginosa AUMC-Pa-1; [4]): 0.125
FICI (P. aeruginosa AUMC-Pa-2; [2]): 1.063
MICa: MIC of the antibiotic (P. aeruginosa AUMC-Pa-2; [3]): 0.5/0.5
MICac: MIC of the antibiotic in the combination (P. aeruginosa AUMC-Pa-2; [4]): 0.5/0.5
